Measurements taken from ChEMBL document CHEMBL1909046, “DrugMatrix in vitro pharmacology data”.
pIC50, pKi: −log10 of the molar value.

Tests used:
[1] = DRUGMATRIX: Tumor Necrosis Factor (TNF), Non-Selective radioligand binding (ligand: [125I] TNF-alpha); assay type: cell membranes, Membrane; conditions: u-937; Not Active = under 50% inhibition at 10 µM
[2] = biological target: Nitric oxide synthase 1 (Rattus norvegicus, UniProt P29476); assay type: tissue-based, Cerebellum; further: in other assays of this panel Not Active means under 50% inhibition at 10 µM
Nitric oxide synthase 1, sequence (P29476 whole entry): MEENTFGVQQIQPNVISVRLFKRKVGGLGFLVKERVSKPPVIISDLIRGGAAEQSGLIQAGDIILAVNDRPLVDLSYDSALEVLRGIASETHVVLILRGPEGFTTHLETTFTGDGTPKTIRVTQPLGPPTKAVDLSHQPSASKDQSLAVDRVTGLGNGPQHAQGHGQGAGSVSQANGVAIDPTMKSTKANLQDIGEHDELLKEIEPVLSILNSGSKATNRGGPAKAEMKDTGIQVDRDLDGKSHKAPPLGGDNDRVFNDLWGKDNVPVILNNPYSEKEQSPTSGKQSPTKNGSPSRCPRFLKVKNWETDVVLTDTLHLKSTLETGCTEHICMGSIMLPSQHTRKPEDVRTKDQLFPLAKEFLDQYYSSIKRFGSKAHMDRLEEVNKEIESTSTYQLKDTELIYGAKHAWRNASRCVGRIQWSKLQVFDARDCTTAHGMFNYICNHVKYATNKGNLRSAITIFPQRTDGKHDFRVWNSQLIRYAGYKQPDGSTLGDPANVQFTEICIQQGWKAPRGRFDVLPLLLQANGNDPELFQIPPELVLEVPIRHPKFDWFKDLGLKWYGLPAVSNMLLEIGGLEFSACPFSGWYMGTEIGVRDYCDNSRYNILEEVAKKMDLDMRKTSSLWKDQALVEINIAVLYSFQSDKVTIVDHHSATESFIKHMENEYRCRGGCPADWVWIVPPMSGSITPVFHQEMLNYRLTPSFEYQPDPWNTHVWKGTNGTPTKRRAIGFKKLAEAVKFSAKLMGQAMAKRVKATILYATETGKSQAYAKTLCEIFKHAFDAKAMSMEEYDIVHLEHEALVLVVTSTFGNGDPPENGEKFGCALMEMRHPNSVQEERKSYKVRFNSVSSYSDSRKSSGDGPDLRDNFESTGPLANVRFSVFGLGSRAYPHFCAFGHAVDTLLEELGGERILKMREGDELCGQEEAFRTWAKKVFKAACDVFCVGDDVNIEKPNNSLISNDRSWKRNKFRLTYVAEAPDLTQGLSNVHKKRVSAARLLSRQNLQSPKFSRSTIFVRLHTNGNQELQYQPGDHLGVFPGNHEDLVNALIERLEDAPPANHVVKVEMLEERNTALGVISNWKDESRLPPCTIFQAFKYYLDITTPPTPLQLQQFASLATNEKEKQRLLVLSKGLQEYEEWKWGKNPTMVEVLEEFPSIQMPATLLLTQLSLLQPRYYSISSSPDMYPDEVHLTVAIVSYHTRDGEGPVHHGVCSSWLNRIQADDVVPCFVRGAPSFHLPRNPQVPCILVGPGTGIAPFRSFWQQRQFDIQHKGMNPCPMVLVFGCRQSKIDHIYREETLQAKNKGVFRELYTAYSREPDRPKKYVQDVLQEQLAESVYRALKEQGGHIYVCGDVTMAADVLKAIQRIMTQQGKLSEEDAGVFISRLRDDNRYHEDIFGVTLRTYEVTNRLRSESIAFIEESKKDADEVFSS

[3] = biological target: Kappa-type opioid receptor (Homo sapiens, UniProt P41145); test: DRUGMATRIX: Opiate kappa (OP2, KOP) radioligand binding (ligand: [3H] Diprenorphine); assay type: cell membranes, HEK293, Membrane; conditions: Not Active = under 50% inhibition at 10 µM; for IC50: hek293
Kappa-type opioid receptor, sequence (P41145 whole entry): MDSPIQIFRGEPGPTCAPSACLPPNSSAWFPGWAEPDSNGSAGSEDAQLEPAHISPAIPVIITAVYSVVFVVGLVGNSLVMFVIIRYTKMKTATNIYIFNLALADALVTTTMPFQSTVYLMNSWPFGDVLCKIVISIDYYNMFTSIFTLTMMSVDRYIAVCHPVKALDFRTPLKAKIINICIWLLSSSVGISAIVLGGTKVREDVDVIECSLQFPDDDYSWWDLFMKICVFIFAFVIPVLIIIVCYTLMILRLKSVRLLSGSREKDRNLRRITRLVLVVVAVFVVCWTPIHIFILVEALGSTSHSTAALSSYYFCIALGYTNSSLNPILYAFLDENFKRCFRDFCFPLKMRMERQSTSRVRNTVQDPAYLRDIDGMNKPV

[4] = DRUGMATRIX: Phosphodiesterase PDE4 enzyme inhibition (substrate: [3H]cAMP + cAMP); conditions: u-937, Not Active = under 50% inhibition at 10 µM; for pIC50: read-out: IC50
[5] = DRUGMATRIX: Purinergic P2X radioligand binding (ligand: [3H] alpha, beta-Methylene-ATP); assay type: cell membranes, Oryctolagus cuniculus, New Zealand albino, Urinary bladder, Membrane; conditions: Not Active = under 50% inhibition at 10 µM
[6] = biological target: Adenosine receptor A2a (Homo sapiens, UniProt P29274); test: DRUGMATRIX: Adenosine A2A radioligand binding (ligand: […]); assay type: cell membranes, HEK293, Membrane; conditions: hek293; Not Active = under 50% inhibition at 10 µM
Adenosine receptor A2a, sequence (P29274 whole entry): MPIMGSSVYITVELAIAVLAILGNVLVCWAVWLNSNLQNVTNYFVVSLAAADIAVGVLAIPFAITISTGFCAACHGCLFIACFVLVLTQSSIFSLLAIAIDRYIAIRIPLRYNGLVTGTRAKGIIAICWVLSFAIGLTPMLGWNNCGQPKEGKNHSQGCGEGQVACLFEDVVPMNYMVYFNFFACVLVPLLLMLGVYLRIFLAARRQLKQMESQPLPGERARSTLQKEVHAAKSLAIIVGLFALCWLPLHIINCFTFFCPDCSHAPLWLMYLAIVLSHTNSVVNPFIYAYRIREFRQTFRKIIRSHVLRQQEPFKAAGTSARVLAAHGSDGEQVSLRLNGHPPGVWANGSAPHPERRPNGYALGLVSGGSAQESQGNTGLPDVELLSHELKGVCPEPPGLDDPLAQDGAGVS

[7] = biological target: T1, Cytochrome P450 2A6 (Homo sapiens, UniProt P11509); conditions: bti-tn-5b1-4; further: in other assays of this panel Not Active means under 50% inhibition at 10 µM
T1 sequence (P11509 whole entry): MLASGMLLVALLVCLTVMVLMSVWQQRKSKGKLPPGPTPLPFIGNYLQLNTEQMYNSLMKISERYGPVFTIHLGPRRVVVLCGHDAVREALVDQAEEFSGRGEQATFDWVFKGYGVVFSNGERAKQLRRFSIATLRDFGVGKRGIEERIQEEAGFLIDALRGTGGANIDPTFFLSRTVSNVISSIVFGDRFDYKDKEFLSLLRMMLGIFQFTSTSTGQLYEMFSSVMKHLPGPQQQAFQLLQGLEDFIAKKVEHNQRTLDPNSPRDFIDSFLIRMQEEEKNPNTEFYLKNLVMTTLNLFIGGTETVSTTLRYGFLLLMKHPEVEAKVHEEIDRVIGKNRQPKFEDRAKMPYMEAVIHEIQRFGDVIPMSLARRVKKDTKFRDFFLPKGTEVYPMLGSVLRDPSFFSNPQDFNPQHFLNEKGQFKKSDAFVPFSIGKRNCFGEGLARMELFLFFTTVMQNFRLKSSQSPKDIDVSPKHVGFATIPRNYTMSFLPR

SMILES | IC50 [1] | Ki [1] | IC50 [2] | IC50 [3] | IC50 [4] | Ki [4] | IC50 [5] | Ki [5] | IC50 [6] | IC50 [7] | Ki [7] | pIC50 [4] | pKi [3] | pIC50 ([3]; read-out: IC50)
CC(C)(C)c1ccc(S(=O)(=O)/C=C/C#N)cc1 [BAY-11-7085] | Not Active | Not Active | Not Active | Not Active | Not Active | Not Active | Not Active | Not Active | Not Active | Not Active | Not Active | – | – | –
CCc1oc2ccccc2c1C(=O)c1cc(Br)c(O)c(Br)c1 [BENZBROMARONE] | Not Active | Not Active | Not Active | Not Active | – | – | Not Active | Not Active | Not Active | Not Active | Not Active | 5.98 | – | –
O=c1cc(-c2ccccc2)oc2ccc3ccccc3c12 [BETA-NAPHTHOFLAVONE] | Not Active | Not Active | Not Active | Not Active | Not Active | Not Active | Not Active | Not Active | Not Active | Not Active | Not Active | – | – | –
CS(=O)(=O)OCCCCOS(C)(=O)=O [BUSULFAN] | Not Active | Not Active | Not Active | Not Active | Not Active | Not Active | Not Active | Not Active | Not Active | Not Active | Not Active | – | – | –
O=C(/C=C/c1ccc(O)c(O)c1)OCCc1ccccc1 [CAFFEIC ACID PHENETHYL ESTER] | Not Active | Not Active | Not Active | Not Active | Not Active | Not Active | Not Active | Not Active | Not Active | Not Active | Not Active | – | – | –
COc1cc(CNC(=O)CCCC/C=C/C(C)C)ccc1O [CAPSAICIN] | Not Active | Not Active | Not Active | Not Active | Not Active | Not Active | Not Active | Not Active | Not Active | Not Active | Not Active | – | – | –
NC(=O)N1c2ccccc2C=Cc2ccccc21 [CARBAMAZEPINE] | Not Active | Not Active | Not Active | Not Active | Not Active | Not Active | Not Active | Not Active | Not Active | Not Active | Not Active | – | – | –
CCOC(=O)n1ccn(C)c1=S [CARBIMAZOLE] | Not Active | Not Active | Not Active | Not Active | Not Active | Not Active | Not Active | Not Active | Not Active | Not Active | Not Active | – | – | –
Oc1ccccc1O [CATECHOL] | Not Active | Not Active | Not Active | Not Active | Not Active | Not Active | Not Active | Not Active | Not Active | Not Active | Not Active | – | – | –
CO[C@@]1(NC(=O)CSCC#N)C(=O)N2C(C(=O)O)=C(CSc3nnnn3C)CS[C@@H]21 [CEFMETAZOLE] | Not Active | Not Active | Not Active | Not Active | Not Active | Not Active | Not Active | Not Active | Not Active | Not Active | Not Active | – | – | –
CN(C(=O)CCCOc1ccc2[nH]c(=O)ccc2c1)C1CCCCC1 [CILOSTAMIDE] | Not Active | Not Active | Not Active | Not Active | Not Active | Not Active | Not Active | Not Active | Not Active | Not Active | Not Active | – | – | –
CC(C)(Oc1ccc(C2CC2(Cl)Cl)cc1)C(=O)O (stereo not drawn) [CIPROFIBRATE] | Not Active | Not Active | Not Active | Not Active | Not Active | Not Active | Not Active | Not Active | Not Active | Not Active | Not Active | – | – | –
Nc1nc(Cl)nc2c1ncn2[C@H]1C[C@H](O)[C@@H](CO)O1 [CLADRIBINE] | Not Active | Not Active | Not Active | Not Active | – | – | Not Active | Not Active | Not Active | Not Active | Not Active | 5.44 | – | –
CC[C@H]1OC(=O)[C@H](C)[C@@H](O[C@H]2C[C@@](C)(OC)[C@@H](O)[C@H](C)O2)[C@H](C)[C@@H](O[C@@H]2O[C@H](C)C[C@H](N(C)C)[C@H]2O)[C@](C)(OC)C[C@@H](C)C(=O)[C@H](C)[C@@H](O)[C@]1(C)O [CLARITHROMYCIN] | Not Active | Not Active | Not Active | Not Active | Not Active | Not Active | Not Active | Not Active | Not Active | Not Active | Not Active | – | – | –
O=C(O)c1cc(=O)c2c(OCC(O)COc3cccc4oc(C(=O)O)cc(=O)c34)cccc2o1 [CROMOLYN] | Not Active | Not Active | Not Active | Not Active | Not Active | Not Active | Not Active | Not Active | Not Active | Not Active | Not Active | – | – | –
O=P1(N(CCCl)CCCl)NCCCO1 (stereo not drawn) [CYCLOPHOSPHAMIDE ANHYDROUS] | Not Active | Not Active | Not Active | Not Active | Not Active | Not Active | Not Active | Not Active | Not Active | Not Active | Not Active | – | – | –
CC(=O)O[C@]1(C(C)=O)CC[C@H]2[C@@H]3C=C(Cl)C4=CC(=O)[C@@H]5C[C@@H]5[C@]4(C)[C@H]3CC[C@@]21C [CYPROTERONE ACETATE] | Not Active | Not Active | Not Active | Not Active | Not Active | Not Active | Not Active | Not Active | Not Active | Not Active | Not Active | – | – | –
C#C[C@]1(O)CC[C@H]2[C@@H]3CCC4=Cc5oncc5C[C@]4(C)[C@H]3CC[C@@]21C [DANAZOL] | Not Active | Not Active | Not Active | – | Not Active | Not Active | Not Active | Not Active | Not Active | Not Active | Not Active | – | 5.21 | 4.81
CCN[C@@H](C)Cc1cccc(C(F)(F)F)c1 [DEXFENFLURAMINE] | Not Active | Not Active | Not Active | Not Active | Not Active | Not Active | Not Active | Not Active | Not Active | Not Active | Not Active | – | – | –
C[C@H](C(=O)O)c1cccc(C(=O)c2ccccc2)c1 [DEXKETOPROFEN] | Not Active | Not Active | Not Active | Not Active | Not Active | Not Active | Not Active | Not Active | Not Active | Not Active | Not Active | – | – | –
CN1C(=O)CN=C(c2ccccc2)c2cc(Cl)ccc21 [DIAZEPAM] | Not Active | Not Active | Not Active | Not Active | Not Active | Not Active | Not Active | Not Active | Not Active | Not Active | Not Active | – | – | –
Cc1c(N(C)CS(=O)(=O)[O-])c(=O)n(-c2ccccc2)n1C.[Na+] [DIPYRONE SODIUM] | Not Active | Not Active | Not Active | Not Active | Not Active | Not Active | Not Active | Not Active | Not Active | Not Active | Not Active | – | – | –
CC(CCc1ccc(O)cc1)NCCc1ccc(O)c(O)c1 (stereo not drawn) [DOBUTAMINE] | Not Active | Not Active | Not Active | Not Active | Not Active | Not Active | Not Active | Not Active | Not Active | Not Active | Not Active | – | – | –
CCn1cc(C(=O)O)c(=O)c2cc(F)c(N3CCNCC3)nc21 [ENOXACIN] | Not Active | Not Active | Not Active | Not Active | Not Active | Not Active | Not Active | Not Active | Not Active | Not Active | Not Active | – | – | –
